This note sets out measurements from patent US6777402B2, “Water-soluble porphyrin derivatives for photodynamic therapy, their use and manufacture” (CeramOptec Industries, Inc., priority 2001, dated 2004).

Values after ≈ are worked out from the molar mass of the structure shown.

A short description of data set [1]: Water solubility of salts with hydrophilic amines. The note with it: as salts with hydrophilic amines.
A further data set is described as follows: physchem. The note with it: water.

Regarding `C=Cc1c(C)c2cc3nc(c4c5[nH]c(cc6nc(cc1[nH]2)C(C)=C6CC)c(C)c5C(=O)OC4=O)[C@@H](CCC(=O)O)[C@@H]3C` [(8), purpurin 18], in data set [1], the “water solubility compared with the respective chlorin e6 salts” value was “remarkably lower water solubility”.
The same measure, in the same setting: the value for `C=Cc1c(C)c2cc3nc(c(C(=O)O)c4[nH]c(cc5nc(cc1[nH]2)C(C)=C5CC)c(C)c4C(=O)O)[C@@H](CCC(=O)O)[C@@H]3C` [(9), chlorin p6] was “remarkably lower water solubility”.
Consider `C=Cc1c(C)c2cc3nc(c(CC(=O)O)c4[nH]c(cc5nc(cc1[nH]2)C(C)=C5CC)c(C)c4C(=O)O)[C@@H](CCC(=O)O)[C@@H]3C` [(7), chlorin e6], for which the solubility in the data set “physchem” was above 5000 µg/mL.
Same read-out and setting: the value for `CCC1=C(C)c2cc3[nH]c(cc4nc(c5c6[nH]c(cc1n2)c(C)c6C(=O)C5)[C@@H](CCC(=O)O)[C@@H]4C)c(C)c3CC` [(36), mesopyropheophorbide a] was 40 µg/mL (≈ 74.5 µM).
In the case of pheophorbide a [(4)], the “water solubility compared with the respective chlorin e6 salts” value in data set [1] is “remarkably lower water solubility”.

As a reminder, the solubility is how much of the substance goes into solution per volume. Read a high solubility as a readily soluble substance.
